Common to all, as to type: cell-based
Experiment [1] deals with T1, pERK1/2 (Thr202/Tyr204), NCI-1H441 (KRAS G12V) (Homo sapiens, UniProt P01116, G12V).
T1 construct: pERK1/2 HTRF read-out
As to the kind of experiment: Assay of intracellular pERK1/2 (Thr202/Tyr204) phosphorylation in NCI-H441 cells (KRAS G12V). The settings on record: pERK1/2, 2 days, read-out: NCI-H441 (KRAS G12V) IC50. In a few lines:
(§1)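 HTRF detection of Thr202/Tyr204-phosphorylated ERK1/2 (665/615 nm ratio) in lysates from cells treated 2 days with serially 3-fold diluted compound.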

Experiment [2] has as its target T2, pERK1/2 (Thr202/Tyr204), NCI-1H358 (KRAS G12C) (Homo sapiens, UniProt P01116, G12C).
T2 construct: pERK1/2 HTRF read-out
As to the kind of experiment: Assay of intracellular pERK1/2 (Thr202/Tyr204) phosphorylation in NCI-H358 cells (KRAS G12C). The settings on record: pERK1/2, 2 days, read-out: NCI-H358 (KRAS G12C) IC50. In a few lines:
as §1

Experiment [3] has as its target T3, pERK1/2 (Thr202/Tyr204), PANC-1 (KRAS G121D) (Homo sapiens, UniProt P01116, G12D).
T3 construct: pERK1/2 HTRF read-out
The experiment is described as follows: Assay of intracellular pERK1/2 (Thr202/Tyr204) phosphorylation in PANC-1 cells (KRAS G12D). The settings on record: pERK1/2, 2 days, read-out: PANC-1 (KRAS G12D) IC50. A digest of the protocol:
as §1

The structures appear in SMILES notation.

T3 sequence (P01116 1-188 isoform P01116-2 G12D): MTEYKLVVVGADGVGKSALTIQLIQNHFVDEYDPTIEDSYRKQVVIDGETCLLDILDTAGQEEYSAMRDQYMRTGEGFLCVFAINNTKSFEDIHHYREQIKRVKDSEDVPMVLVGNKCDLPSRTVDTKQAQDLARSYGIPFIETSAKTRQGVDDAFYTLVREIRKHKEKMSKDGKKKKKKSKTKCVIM
T1 sequence (P01116 1-188 isoform P01116-2 G12V): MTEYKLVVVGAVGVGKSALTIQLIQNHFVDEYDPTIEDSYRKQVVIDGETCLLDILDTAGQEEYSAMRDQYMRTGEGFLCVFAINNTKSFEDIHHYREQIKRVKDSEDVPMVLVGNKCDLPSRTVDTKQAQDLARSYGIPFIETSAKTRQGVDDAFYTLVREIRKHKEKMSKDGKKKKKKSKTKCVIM
T2 sequence (P01116 1-188 isoform P01116-2 G12C): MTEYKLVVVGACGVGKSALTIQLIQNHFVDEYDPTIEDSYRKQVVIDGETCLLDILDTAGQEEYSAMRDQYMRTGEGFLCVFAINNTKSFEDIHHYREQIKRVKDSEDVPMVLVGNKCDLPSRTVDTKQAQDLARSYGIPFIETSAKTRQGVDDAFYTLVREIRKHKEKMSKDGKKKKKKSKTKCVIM

In the case of `Cc1cc(N)cc(-c2nc3c4c(nc(OCC5CCOCC5)nc4c2F)N([C@@H](C)c2cccnc2N)CCO3)c1C(F)(F)F` (single isomer, unassigned) [Compound 118, (R or S)-3-(1-(5-(5-amino-3-methyl-2-(trifluoromethyl)phenyl)-4-fluoro-2-((tetrahydro-2H-pyran-4-yl)methoxy)-8,9-dihydro-10H-7-oxa-1,3,6,10-tetraazacyclohepta[de]napthalen-10-yl)ethyl)pyridin-2-amine], the half-maximal inhibitory concentration (IC50) in experiment [1], in experiment [2] and in experiment [3] was over 100 nM each time.

For the compound `[2H]C1([2H])CC[C@@]2(C([2H])([2H])Oc3nc4c5c(nc(-c6cc(N)c(F)c(C)c6C(F)(F)F)c(F)c5n3)OCCN4C(C)c3cccnc3N)C[C@@H](F)CN12` (single isomer, unassigned) [Compound 124, 3-((R or S)-1-(5-(5-amino-4-fluoro-3-methyl-2-(trifluoromethyl)phenyl)-4-fluoro-2-(((2R,7aS)-2-fluorotetrahydro-1H-pyrrolizin-7a(5H)-yl-5,5-d2)methoxy-d2)-8,9-dihydro-10H-7-oxa-1,3,6,10-tetraazacyclohepta[de]naphthalen-10-yl)ethyl)pyridin-2-amine], the IC50 in experiment [1] stood at 0.3 nM; in experiment [2], 0.1 nM; in experiment [3], 1 nM.

On to `[2H]C1([2H])CC[C@@]2(C([2H])([2H])Oc3nc4c5c(nc(-c6cc(N)c(F)c(C)c6C(F)(F)F)c(F)c5n3)OCCN4[C@@H](C)c3cccnc3N)C[C@@H](F)CN12` (single isomer, unassigned) [Compound 125, 3-((R or S)-1-(5-(5-amino-4-fluoro-3-methyl-2-(trifluoromehtyl)phenyl)-4-fluoro-2-(((2R,7aS)-2-fluorotetrahydro-1H-pyrrolizin-7a(5H)-yl-5,5-d2)methoxy-d2)-8,9-dihydro-10H-7-oxa-1,3,6,10-tetraazacyclohepta[de]naphthalen-10-yl)ethyl)pyridin-2-amine], for which the values for the concentration for half-maximal inhibition (IC50) in experiment [1], in experiment [2] and in experiment [3] were 40 nM, 12 nM and 57 nM, respectively.

On to `Cc1cc(N)cc(-c2nc3c4c(nc(OC[C@@]56CCCN5C[C@H](F)C6)nc4c2F)N(C(C)c2cccnn2)CCO3)c1C(F)(F)F` (single isomer, unassigned) [Compound 127, 3-(4-fluoro-2-(((2R,7aS)-2-fluorotetrahydro-1H-pyrrolizin-7a(5H)-yl)methoxy)-10-((R or S)-1-(pyridazin-3-yl)ethyl)-9,10-dihydro-8H-7-oxa-1,3,6,10-tetraazacyclohepta[de]naphthalen-5-yl)-5-methyl-4-(trifluoromethyl)aniline], for which the IC50 in experiment [1], in experiment [2] and in experiment [3] was over 100 nM throughout.

As to `[2H]C1([2H])CC[C@@]2(C([2H])([2H])Oc3nc4c5c(nc(-c6cc(O)cc(Cl)c6C6CC6)c(F)c5n3)OCCN4[C@H](C)c3cccnc3N)C[C@@H](F)CN12` (single isomer, unassigned) [Compound 130, 3-(10-((R or S)-1-(2-aminopyridin-3-yl)ethyl)-4-fluoro-2-(((2R,7aS)-2-fluorotetrahydro-1H-pyrrolizin-7a(5H)-yl-5,5-d2)methoxy-d2)-9,10-dihydro-8H-7-oxa-1,3,6,10-tetraazacyclohepta[de]naphthalen-5-yl)-5-chloro-4-cyclopropylphenyl], the IC50 in experiment [1], in experiment [2] and in experiment [3] was over 100 nM each time.

For `[2H]C1([2H])CC[C@@]2(C([2H])([2H])Oc3nc4c5c(nc(-c6cc(O)cc(Cl)c6C6CC6)c(F)c5n3)OCCN4C(C)c3cccnc3N)C[C@@H](F)CN12` (single isomer, unassigned) [Compound 131, 3-(10-((R or S)-1-(2-aminopyridin-3-yl)ethyl)-4-fluoro-2-(((2R,7aS)-2-fluorotetrahydro-1H-pyrrolizin-7a(5H)-yl-5,5-d2)methoxy-d2)-9,10-dihydro-8H-7-oxa-1,3,6,10-tetraazacyclohepta[de]naphthalen-5-yl)-5-chloro-4-cyclopropylphenol], the figures for the IC50 in experiment [1], in experiment [2] and in experiment [3] were 1 nM, 0.5 nM and 7 nM, respectively.

Take `[2H]C([2H])(Oc1nc2c3c(nc(-c4cc(N)cc(C)c4C(F)(F)F)c(F)c3n1)OCCN2C(C)c1cccnc1N)[C@@H]1C[C@@H](F)CN1C([2H])([2H])[2H]` (single isomer, unassigned) [Compound 132, 3-((R or S)-1-(5-(5-amino-3-methyl-2-(trifluoromethyl)phenyl)-4-fluoro-2-(((2S,4R)-4-fluoro-1-(methyl-d3)pyrrolidin-2-yl)methoxy-d2)-8,9-dihydro-10H-7-oxa-1,3,6,10-tetraazacyclohepta[de]naphthalen-10-yl)ethyl)pyridin-2-amine]: the results for the 50% inhibitory concentration (IC50) in experiment [1], in experiment [2] and in experiment [3] were 1 nM, 0.4 nM and 14 nM, respectively.

As for `[2H]C([2H])(Oc1nc2c3c(nc(-c4cc(N)cc(C)c4C(F)(F)F)c(F)c3n1)OCCN2C(C)c1cccnc1N)[C@@H]1C[C@@H](F)CN1C([2H])([2H])[2H]` (single isomer, unassigned) [Compound 133, 3-((R or S)-1-(5-(5-amino-3-methyl-2-(trifluoromethyl)phenyl)-4-fluoro-2-(((2S,4R)-4-fluoro-1-(methyl-d3)pyrrolidin-2-yl)methoxy-d2)-8,9-dihydro-10H-7-oxa-1,3,6,10-tetraazacyclohepta[de]naphthalen-10-yl)ethyl)pyridin-2-amine], the IC50 was 10 nM in experiment [1], 3 nM in experiment [2] and over 100 nM in experiment [3].

As for `Cc1c(F)c(N)cc(-c2nc3c4c(nc(OC[C@@]56CCCN5C[C@H](F)C6)nc4c2F)N([C@H](C)c2cccnc2N)CCO3)c1C(F)(F)F` (single isomer, unassigned) [Compound 137], the IC50 in experiment [1] was determined as 0.2 nM; in experiment [2], 0.1 nM; in experiment [3], 0.9 nM.

In the case of `Cc1c(F)c(N)cc(-c2nc3c4c(nc(OC[C@@]56CCCN5C[C@H](F)C6)nc4c2F)N(C(C)c2cccnc2N)CCO3)c1C(F)(F)F` (single isomer, unassigned) [Compound 138, 3-((R or S)-1-(5-(5-amino-4-fluoro-3-methyl-2-(trifluoromethyl)phenyl)-4-fluoro-2-(((2R,7aS)-2-fluorotetrahydro-1H-pyrrolizin-7a(5H)-yl)methoxy)-8,9-dihydro-10H-7-oxa-1,3,6,10-tetraazacyclohepta[de]naphthalen-10-yl)ethyl)pyridin-2-amine], the IC50 is 17 nM in experiment [1], 13 nM in experiment [2] and 30 nM in experiment [3].

`[2H]C([2H])(Oc1nc2c3c(nc(-c4cc(O)cc(Cl)c4C4CC4)c(F)c3n1)OCCN2[C@H](C)c1cccnc1N)[C@@H]1C[C@@H](F)CN1C([2H])([2H])[2H]` (single isomer, unassigned) [Compound 142, 3-(10-((R or S)-1-(2-aminopyridin-3-yl)ethyl)-4-fluoro-2-(((2S,4R)-4-fluoro-1-(methyl-d3)pyrrolidin-2-yl)methoxy-d2)-9,10-dihydro-8H-7-oxa-1,3,6,10-tetraazacyclohepta[de]naphthalen-5-yl)-5-chloro-4-cyclopropylphenyl]: the IC50 in experiment [1], in experiment [2] and in experiment [3] was over 100 nM each time.

`[2H]C([2H])(Oc1nc2c3c(nc(-c4cc(O)cc(Cl)c4C4CC4)c(F)c3n1)OCCN2[C@@H](C)c1cccnc1N)[C@@H]1C[C@@H](F)CN1C([2H])([2H])[2H]` (single isomer, unassigned) [Compound 143, 3-(10-((R or S)-1-(2-aminopyridin-3-yl)ethyl)-4-fluoro-2-(((2S,4)-4-fluoro-1-(methyl-d3)pyrrolidin-2-yl)methoxy-d2)-9,10-dihydro-8H-7-oxa-1,3,6,10-tetraazacyclohepta[de]naphthalen-5-yl)-5-chloro-4-cyclopropylphenol]: the IC50 in experiment [1] stood at 2 nM; in experiment [2], 0.5 nM; in experiment [3], 21 nM.

For `CC(c1cccnc1N)N1CCOc2nc(-c3cc(N)c(F)cc3C(F)(F)F)c(F)c3nc(OC[C@@]45CCCN4C[C@H](F)C5)nc1c23` (single isomer, unassigned) [Compound 144, 3-((R or S)-1-(5-(5-amino-4-fluoro-2-(trifluoromethyl)phenyl)-4-fluoro-2-(((2R,7aS)-2-fluorotetrahydro-1H-pyrrolizin-7a(5H)-yl)methoxy)-8,9-dihydro-10H-7-oxa-1,3,6,10-tetraazacyclohepta[de]naphthalen-10-yl)ethyl)pyridin-2-amine], the IC50 was 2 nM in experiment [1], 0.4 nM in experiment [2] and 17 nM in experiment [3].

Turning to `CC(c1cccnc1N)N1CCOc2nc(-c3cc(N)c(F)cc3C(F)(F)F)c(F)c3nc(OC[C@@]45CCCN4C[C@H](F)C5)nc1c23` (single isomer, unassigned) [Compound 145, 3-((R or S)-1-(5-(5-amino-4-fluoro-2-(trifluoromethyl)phenyl)-4-fluoro-2-(((2R,7aS)-2-fluorotetrahydro-1H-pyrrolizin-7a(5H)-yl)methoxy)-8,9-dihydro-10H-7-oxa-1,3,6,10-tetraazacyclohepta[de]naphthalen-10-yl)ethyl)pyridin-2-amine], the IC50 in experiment [1] was 51 nM; in experiment [2] it was 14 nM; in experiment [3], over 100 nM.

Values taken from US20260356851A1, “TRICYCLIC COMPOUNDS AND USES THEREOF” (HUTCHMED LIMITED, priority 2023, published 2026).
